Reference: patent publication US20250051356A1, “RIFABUTIN ANALOGS FOR THE TREATMENT OF DISEASE” (priority 2021, published 2025)
Converted amounts (≈) assume the structure as drawn. Where two headings read alike, the source gives them in different places.

Assays:
Type in all cases: cell-based
[1] = system: M. abscessus subsp. abscessus CCUG 71636; test: MIC against M. abscessus isolate in CAMHB
[2] = system: M. abscessus subsp. massiliense CCUG 48898; test: MIC against M. abscessus isolate in CAMHB; settings: Mycobacteroides abscessus, CCUG48898
[3] = system: M. abscessus subsp. bolletii CCUG 50184; test: MIC against M. abscessus isolate in CAMHB; settings: Mycobacteroides abscessus, CCUG50184
M. avium (ATCC 25291) = test: MIC against M. avium in CAMHB + ADC; settings: Mycobacterium avium, ATCC25291; ATCC 25291; CAMHB + ADC (5%); read-out: MIC M. avium
M. kansasii (ATCC 12478) = test: MIC against M. kansasii in CAMHB + ADC; settings: Mycobacterium kansasii, ATCC12478; ATCC 12478; CAMHB + ADC (5%); read-out: MIC M. kansasii
[4] = system: S. aureus (UAMS-1625 strain); test: MIC by broth microdilution against S. aureus; settings: Staphylococcus aureus, read-out: MIC S. aureus
[5] = system: A. baumannii (HUMC1 strain); test: MIC by broth microdilution against A. baumannii in RPMI + 10% FCS; settings: Acinetobacter baumannii; HUMC1 strain; RPMI + 10% FCS; read-out: MIC A. baumannii
[6] = system: M. abscessus subsp. abscessus CCUG 71382; test: MIC against M. abscessus isolate in CAMHB; settings: Mycobacteroides abscessus, CCUG71382
[7] = system: M. abscessus subsp. abscessus ATCC 19977; test: MIC against M. abscessus in Middlebrook 7H9 + ADC; settings: Mycobacteroides abscessus
[8] = system: M. abscessus subsp. abscessus ATCC 19977; test: MIC against M. abscessus isolate in CAMHB; settings: Mycobacteroides abscessus, ATCC19977
M. xenopi (ATCC 19250) = test: MIC against M. xenopi in CAMHB + ADC; settings: Mycobacterium xenopi, ATCC19250; ATCC 19250; CAMHB + ADC (5%); read-out: MIC M. xenopi
[9] = Mycobacteroides abscessus, CCUG71636; read-out: M. abscessus MIC in CAMHB, abscessus CCUG 71636
[10] = ATCC19977, ATCC 19977, 7H9 + ADC, read-out: MIC M. abscessus

SMILES | MIC [1, 9] | MIC [2] | MIC [3] | MIC (M. avium (ATCC 25291)) | MIC (M. kansasii (ATCC 12478)) | MIC [4] | MIC [5] | MIC [6] | MIC [7, 10] | MIC [8] | MIC (M. xenopi (ATCC 19250)) | MIC ([1]; Mycobacteroides abscessus, CCUG71636, read-out: M. abscessus MIC in CAMHB, abscessus CCUG 71636) | MIC ([7]; ATCC19977, read-out: MIC M. abscessus)
CO[C@H]1/C=C/OC2(C)Oc3c(C)c(O)c4c(c3C2=O)C2=NC3(CCN(CC(C)C)CC3)NC2=C(NC(=O)/C(C)=C\C=C\[C@H](C)[C@H](O)[C@@H](C)[C@@H](O)[C@@H](C)[C@H](OC(=O)CCCC(=O)N2CCC(N(C)c3ccccc3)CC2)[C@@H]1C)C4=O (stereo partly drawn) [Compound 85] | 0.5 µg/mL (≈ 0.458 µM) | 1 µg/mL (≈ 0.916 µM) | 1 µg/mL (≈ 0.916 µM) | 0.25 µg/mL | 0.008 µg/mL | 0.5 µg/mL (≈ 0.458 µM) | 0.03 µg/mL | 1 µg/mL (≈ 0.916 µM) | 0.125 µg/mL | 1 µg/mL (≈ 0.916 µM) | 0.03 µg/mL |  | 
CO[C@H]1/C=C/O[C@@]2(C)Oc3c(C)c(O)c4c(c3C2=O)C2=NC3(CCN(CC(C)C)CC3)NC2=C(NC(=O)/C(C)=C\C=C\[C@H](C)[C@H](O)[C@@H](C)[C@@H](O)[C@@H](C)[C@H](OC(=O)CC(=O)NC2CCN(Cc3ccccc3)CC2)[C@@H]1C)C4=O [Compound 90] |  | 1 µg/mL (≈ 0.94 µM) | 0.5 µg/mL (≈ 0.47 µM) | 0.125 µg/mL | 0.008 µg/mL | 0.125 µg/mL (≈ 0.118 µM) | 0.016 µg/mL | 1 µg/mL (≈ 0.94 µM) | 0.25 µg/mL | 1 µg/mL (≈ 0.94 µM) | 0.25 µg/mL | 0.125 µg/mL (≈ 0.118 µM) | 
CO[C@H]1/C=C/O[C@@]2(C)Oc3c(C)c(O)c4c(c3C2=O)C2=NC3(CCN(CC(C)C)CC3)NC2=C(NC(=O)/C(C)=C\C=C\[C@H](C)[C@H](O)[C@@H](C)[C@@H](O)[C@@H](C)[C@H](OC(=O)CC(=O)N2CCN(CC3CCCCC3)CC2)[C@@H]1C)C4=O [Compound 98] | 0.125 µg/mL (≈ 0.118 µM) | 0.5 µg/mL (≈ 0.474 µM) | 0.25 µg/mL (≈ 0.237 µM) | 0.03 µg/mL | 0.002 µg/mL | 0.5 µg/mL (≈ 0.474 µM) | 0.03 µg/mL | 0.5 µg/mL (≈ 0.474 µM) | 0.125 µg/mL | 0.25 µg/mL (≈ 0.237 µM) | 0.016 µg/mL |  | 
CO[C@H]1/C=C/O[C@@]2(C)Oc3c(C)c(O)c4c(c3C2=O)C2=NC3(CCN(CC(C)C)CC3)NC2=C(NC(=O)/C(C)=C\C=C\[C@H](C)[C@H](O)[C@@H](C)[C@@H](O)[C@@H](C)[C@H](OC(=O)CC(=O)N2CCN(c3ccncc3)CC2)[C@@H]1C)C4=O [Compound 116] |  |  |  | 2 µg/mL | 0.06 µg/mL | 0.06 µg/mL (≈ 0.0579 µM) | ≤ 0.002 µg/mL |  | 0.25 µg/mL |  | 1 µg/mL |  | 
CO[C@H]1/C=C/O[C@@]2(C)Oc3c(C)c(O)c4c(c3C2=O)C2=NC3(CCN(CC(C)C)CC3)NC2=C(NC(=O)/C(C)=C\C=C\[C@H](C)[C@H](O)[C@@H](C)[C@@H](O)[C@@H](C)[C@H](OC(=O)CC(=O)N2CCN(c3ncccn3)CC2)[C@@H]1C)C4=O [Compound 117] |  |  |  | 0.25 µg/mL | 0.004 µg/mL | 0.03 µg/mL (≈ 0.0289 µM) | ≤ 0.002 µg/mL |  | 0.125 µg/mL |  | 0.125 µg/mL |  | 
CO[C@H]1/C=C/O[C@@]2(C)Oc3c(C)c(O)c4c(c3C2=O)C2=NC3(CCN(CC(C)C)CC3)NC2=C(NC(=O)/C(C)=C\C=C\[C@H](C)[C@H](O)[C@@H](C)[C@@H](O)[C@@H](C)[C@H](OC(=O)CC(=O)N2CCN(Cc3ccccn3)CC2)[C@@H]1C)C4=O [Compound 118] |  |  |  | 2 µg/mL | 0.03 µg/mL | 0.06 µg/mL (≈ 0.0571 µM) | ≤ 0.002 µg/mL |  | 0.25 µg/mL |  | 0.25 µg/mL |  | 
CO[C@H]1/C=C/O[C@@]2(C)Oc3c(C)c(O)c4c(c3C2=O)C2=NC3(CCN(CC(C)C)CC3)NC2=C(NC(=O)/C(C)=C\C=C\[C@H](C)[C@H](O)[C@@H](C)[C@@H](O)[C@@H](C)[C@H](OC(=O)CC(=O)N2CCN(Cc3ccncc3)CC2)[C@@H]1C)C4=O [Compound 119] |  |  |  | 1 µg/mL | 0.008 µg/mL | 0.016 µg/mL (≈ 0.0152 µM) | ≤ 0.002 µg/mL |  | 0.25 µg/mL |  | 0.25 µg/mL |  | 
CO[C@H]1/C=C/O[C@@]2(C)Oc3c(C)c(O)c4c(c3C2=O)C2=NC3(CCN(CC(C)C)CC3)NC2=C(NC(=O)/C(C)=C\C=C\[C@H](C)[C@H](O)[C@@H](C)[C@@H](O)[C@@H](C)[C@H](OC(=O)CC(=O)N2CCCN(C)CC2)[C@@H]1C)C4=O [Compound 120] |  |  |  | 2 µg/mL | 0.25 µg/mL | 0.06 µg/mL (≈ 0.0608 µM) | 0.06 µg/mL |  | 0.25 µg/mL |  | 1 µg/mL |  | 
CO[C@H]1/C=C/O[C@@]2(C)Oc3c(C)c(O)c4c(c3C2=O)C2=NC3(CCN(CC(C)C)CC3)NC2=C(NC(=O)/C(C)=C\C=C\[C@H](C)[C@H](O)[C@@H](C)[C@@H](O)[C@@H](C)[C@H](OC(=O)CC(=O)N2CCCN(c3ccccn3)CC2)[C@@H]1C)C4=O [Compound 122] |  |  |  | 0.125 µg/mL | 0.002 µg/mL | 0.06 µg/mL (≈ 0.0571 µM) | ≤ 0.002 µg/mL |  | 0.125 µg/mL |  | 0.03 µg/mL |  | 
CO[C@H]1/C=C/O[C@@]2(C)Oc3c(C)c(O)c4c(c3C2=O)C2=NC3(CCN(CC(C)C)CC3)NC2=C(NC(=O)/C(C)=C\C=C\[C@H](C)[C@H](O)[C@@H](C)[C@@H](O)[C@@H](C)[C@H](OC(=O)CC(=O)N2CCCN(c3cccc(C(F)(F)F)n3)CC2)[C@@H]1C)C4=O [Compound 123] |  |  |  | 0.06 µg/mL | 0.008 µg/mL | 0.5 µg/mL (≈ 0.447 µM) | 0.25 µg/mL |  | 0.25 µg/mL |  | 0.125 µg/mL |  | 
CO[C@H]1/C=C/O[C@@]2(C)Oc3c(C)c(O)c4c(c3C2=O)C2=NC3(CCN(CC(C)C)CC3)NC2=C(NC(=O)/C(C)=C\C=C\[C@H](C)[C@H](O)[C@@H](C)[C@@H](O)[C@@H](C)[C@H](OC(=O)CC(=O)N2CCCN(c3ncccn3)CC2)[C@@H]1C)C4=O [Compound 124] |  |  |  | 0.125 µg/mL | 0.008 µg/mL | 0.03 µg/mL (≈ 0.0285 µM) | ≤ 0.002 µg/mL |  | 0.125 µg/mL |  | 0.125 µg/mL |  | 
CO[C@H]1/C=C/O[C@@]2(C)Oc3c(C)c(O)c4c(c3C2=O)C2=NC3(CCN(CC(C)C)CC3)NC2=C(NC(=O)/C(C)=C\C=C\[C@H](C)[C@H](O)[C@@H](C)[C@@H](O)[C@@H](C)[C@H](OC(=O)CC(=O)N2CCCN(c3nccc(C(F)(F)F)n3)CC2)[C@@H]1C)C4=O [Compound 125] |  |  |  | 0.03 µg/mL | 0.008 µg/mL | 0.5 µg/mL (≈ 0.447 µM) | 0.25 µg/mL |  | 0.125 µg/mL |  | 0.06 µg/mL |  | 
CO[C@H]1/C=C/O[C@@]2(C)Oc3c(C)c(O)c4c(c3C2=O)C2=NC3(CCN(CC(C)C)CC3)NC2=C(NC(=O)/C(C)=C\C=C\[C@H](C)[C@H](O)[C@@H](C)[C@@H](O)[C@@H](C)[C@H](OC(=O)CC(=O)N2CCCN(Cc3ccccc3)CC2)[C@@H]1C)C4=O [Compound 126] |  |  |  | 0.03 µg/mL | 0.004 µg/mL | 0.125 µg/mL (≈ 0.118 µM) | 0.004 µg/mL |  |  |  | 0.03 µg/mL |  | 0.125 µg/mL
CO[C@H]1/C=C/O[C@@]2(C)Oc3c(C)c(O)c4c(c3C2=O)C2=NC3(CCN(CC(C)C)CC3)NC2=C(NC(=O)/C(C)=C\C=C\[C@H](C)[C@H](O)[C@@H](C)[C@@H](O)[C@@H](C)[C@H](OC(=O)CC(=O)N2CCCN(Cc3ccc(F)cc3)CC2)[C@@H]1C)C4=O [Compound 127] |  |  |  | 0.125 µg/mL | 0.008 µg/mL | 0.25 µg/mL (≈ 0.231 µM) | 0.06 µg/mL |  | 0.125 µg/mL |  | 0.03 µg/mL |  | 
CO[C@H]1/C=C/O[C@@]2(C)Oc3c(C)c(O)c4c(c3C2=O)C2=NC3(CCN(CC(C)C)CC3)NC2=C(NC(=O)/C(C)=C\C=C\[C@H](C)[C@H](O)[C@@H](C)[C@@H](O)[C@@H](C)[C@H](OC(=O)CC(=O)N2CCCN(Cc3ccncc3)CC2)[C@@H]1C)C4=O [Compound 128] |  |  |  | 0.5 µg/mL | 0.03 µg/mL | 0.06 µg/mL (≈ 0.0564 µM) | ≤ 0.002 µg/mL |  | 0.25 µg/mL |  | 0.25 µg/mL |  | 
